From paper PMC12090182, “Repurposing of the RIPK1-Selective Benzo[1,4]oxazepin-4-one Scaffold for the Development of a Type III LIMK1/2 Inhibitor” (ACS Chemical Biology, 2025)

Key:
Experiment in all cases: scanMAX KINOMEscan (Eurofins)
Format in all cases: binding
[1] = target: CIT (Homo sapiens, UniProt O14578); details: 1000 nM, read-out: Percent Control
Description: (§1) Supplement cb5c00097_si_002.xlsx, sheet "Table S6 (Eurofins Selectivity)" | column: Percent Control

[2] = target: PAK4 (Homo sapiens, UniProt O96013); details: 1000 nM, read-out: Percent Control
Description: as §1

[3] = target: DDR2 (Homo sapiens, UniProt Q16832); details: 1000 nM, read-out: Percent Control
Description: as §1

[4] = target: CDC2L2 (Homo sapiens, UniProt Q9UQ88); details: 1000 nM, read-out: Percent Control
Description: as §1

[5] = target: RPS6KA5(Kin.Dom.1-N-terminal) (Homo sapiens, UniProt O75582); details: compound concentration 100 nM; Entrez RPS6KA5; read-out: Percent Control
Description: as §1

[6] = target: NEK5 (Homo sapiens, UniProt Q6P3R8); details: 1000 nM, read-out: Percent Control
Description: as §1

[7] = target: PIM2 (Homo sapiens, UniProt Q9P1W9); details: 1000 nM, read-out: Percent Control
Description: as §1

[8] = target: PRKD1 (Homo sapiens, UniProt Q15139); details: 1000 nM, read-out: Percent Control
Description: as §1

[9] = target: CSF1R-autoinhibited (Homo sapiens, UniProt P07333); details: 1000 nM, read-out: Percent Control
Description: as §1

[10] = target: ERK3 (Homo sapiens, UniProt Q16659); details: read-out: Percent Control
ERK3, sequence (Q16659 whole entry): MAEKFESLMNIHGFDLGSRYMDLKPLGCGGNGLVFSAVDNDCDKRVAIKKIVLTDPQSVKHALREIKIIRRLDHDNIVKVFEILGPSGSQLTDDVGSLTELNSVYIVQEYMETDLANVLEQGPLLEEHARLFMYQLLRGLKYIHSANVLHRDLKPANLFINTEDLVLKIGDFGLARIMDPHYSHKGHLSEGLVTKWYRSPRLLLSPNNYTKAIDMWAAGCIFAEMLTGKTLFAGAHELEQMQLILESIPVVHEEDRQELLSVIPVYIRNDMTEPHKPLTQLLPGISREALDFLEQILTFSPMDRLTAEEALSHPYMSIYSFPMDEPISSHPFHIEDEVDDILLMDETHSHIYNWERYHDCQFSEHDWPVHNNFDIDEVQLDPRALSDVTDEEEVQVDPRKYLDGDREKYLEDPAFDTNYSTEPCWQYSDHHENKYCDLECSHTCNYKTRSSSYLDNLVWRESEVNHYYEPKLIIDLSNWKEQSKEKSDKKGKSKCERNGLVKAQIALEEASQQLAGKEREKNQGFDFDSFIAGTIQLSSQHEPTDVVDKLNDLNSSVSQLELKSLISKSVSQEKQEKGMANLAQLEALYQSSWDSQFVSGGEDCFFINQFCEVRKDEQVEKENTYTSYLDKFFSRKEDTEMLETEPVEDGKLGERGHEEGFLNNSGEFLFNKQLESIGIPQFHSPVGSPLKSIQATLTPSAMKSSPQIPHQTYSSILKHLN
Description: as §1

[11] = target: PFCDPK1(P.falciparum) (Plasmodium falciparum, UniProt P62344); details: compound concentration 100 nM; Entrez CDPK1; read-out: Percent Control
Description: as §1

[12] = target: WNK4 (Homo sapiens, UniProt Q96J92); details: compound concentration 100 nM; Entrez WNK4; read-out: Percent Control
Description: as §1

[13] = target: ACVRL1 (Homo sapiens, UniProt P37023); details: 1000 nM, read-out: Percent Control
Description: as §1

[14] = target: VEGFR2 (Homo sapiens, UniProt P35968); details: 1000 nM, read-out: Percent Control
Description: as §1

[15] = target: RSK4(Kin.Dom.2-C-terminal) (Homo sapiens, UniProt Q9UK32); details: 1000 nM, read-out: Percent Control
Description: as §1

[16] = target: ARK5 (Homo sapiens, UniProt O60285); details: read-out: Percent Control
ARK5, sequence (O60285 whole entry): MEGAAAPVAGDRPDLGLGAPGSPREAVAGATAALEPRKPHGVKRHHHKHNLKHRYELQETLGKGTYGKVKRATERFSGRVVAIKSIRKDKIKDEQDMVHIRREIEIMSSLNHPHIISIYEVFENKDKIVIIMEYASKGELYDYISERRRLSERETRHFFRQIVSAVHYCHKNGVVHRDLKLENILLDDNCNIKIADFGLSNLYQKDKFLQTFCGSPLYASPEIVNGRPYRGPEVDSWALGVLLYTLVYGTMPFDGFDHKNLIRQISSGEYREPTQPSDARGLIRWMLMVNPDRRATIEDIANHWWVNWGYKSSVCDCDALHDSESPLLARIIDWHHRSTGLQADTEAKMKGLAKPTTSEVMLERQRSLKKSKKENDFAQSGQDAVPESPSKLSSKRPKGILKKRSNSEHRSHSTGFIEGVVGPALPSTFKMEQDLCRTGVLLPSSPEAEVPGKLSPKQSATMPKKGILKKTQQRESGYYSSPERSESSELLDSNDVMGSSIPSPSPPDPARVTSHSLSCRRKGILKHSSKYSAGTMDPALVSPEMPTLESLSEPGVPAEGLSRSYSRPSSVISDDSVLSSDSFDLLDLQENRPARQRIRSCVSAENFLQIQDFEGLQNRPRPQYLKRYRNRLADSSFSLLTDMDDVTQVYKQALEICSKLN
Description: as §1

[17] = target: ERK8 (Homo sapiens, UniProt Q8TD08); details: read-out: Percent Control
ERK8, sequence (Q8TD08 whole entry): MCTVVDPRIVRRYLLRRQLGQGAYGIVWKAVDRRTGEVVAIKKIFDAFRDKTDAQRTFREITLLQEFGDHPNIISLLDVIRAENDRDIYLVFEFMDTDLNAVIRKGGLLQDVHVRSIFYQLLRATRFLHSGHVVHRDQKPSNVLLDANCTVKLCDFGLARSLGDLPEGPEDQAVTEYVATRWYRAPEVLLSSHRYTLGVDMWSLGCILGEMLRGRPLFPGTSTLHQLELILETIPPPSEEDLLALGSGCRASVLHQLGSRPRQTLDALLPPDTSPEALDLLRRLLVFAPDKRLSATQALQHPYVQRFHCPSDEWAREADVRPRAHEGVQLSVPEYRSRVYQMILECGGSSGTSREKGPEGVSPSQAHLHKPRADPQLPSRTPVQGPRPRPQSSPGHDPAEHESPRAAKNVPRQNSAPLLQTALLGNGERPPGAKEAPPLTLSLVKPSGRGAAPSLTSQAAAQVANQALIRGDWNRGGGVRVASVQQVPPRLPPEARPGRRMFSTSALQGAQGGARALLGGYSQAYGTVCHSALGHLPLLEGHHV
Description: as §1

[18] = target: PIK3C2G (Homo sapiens, UniProt O75747); details: 1000 nM, read-out: Percent Control
Description: as §1

[19] = target: S6K1 (Homo sapiens, UniProt P23443); details: compound concentration 100 nM; Entrez RPS6KB1; read-out: Percent Control
Description: as §1

[20] = target: DYRK1A (Homo sapiens, UniProt Q13627); details: 1000 nM, read-out: Percent Control
Description: as §1

[21] = target: FER (Homo sapiens, UniProt P16591); details: 1000 nM, read-out: Percent Control
Description: as §1

[22] = target: ACVR1B (Homo sapiens, UniProt P36896); details: 1000 nM, read-out: Percent Control
Description: as §1

[23] = target: BMPR2 (Homo sapiens, UniProt Q13873); details: read-out: Percent Control
BMPR2, sequence (Q13873 27-1038): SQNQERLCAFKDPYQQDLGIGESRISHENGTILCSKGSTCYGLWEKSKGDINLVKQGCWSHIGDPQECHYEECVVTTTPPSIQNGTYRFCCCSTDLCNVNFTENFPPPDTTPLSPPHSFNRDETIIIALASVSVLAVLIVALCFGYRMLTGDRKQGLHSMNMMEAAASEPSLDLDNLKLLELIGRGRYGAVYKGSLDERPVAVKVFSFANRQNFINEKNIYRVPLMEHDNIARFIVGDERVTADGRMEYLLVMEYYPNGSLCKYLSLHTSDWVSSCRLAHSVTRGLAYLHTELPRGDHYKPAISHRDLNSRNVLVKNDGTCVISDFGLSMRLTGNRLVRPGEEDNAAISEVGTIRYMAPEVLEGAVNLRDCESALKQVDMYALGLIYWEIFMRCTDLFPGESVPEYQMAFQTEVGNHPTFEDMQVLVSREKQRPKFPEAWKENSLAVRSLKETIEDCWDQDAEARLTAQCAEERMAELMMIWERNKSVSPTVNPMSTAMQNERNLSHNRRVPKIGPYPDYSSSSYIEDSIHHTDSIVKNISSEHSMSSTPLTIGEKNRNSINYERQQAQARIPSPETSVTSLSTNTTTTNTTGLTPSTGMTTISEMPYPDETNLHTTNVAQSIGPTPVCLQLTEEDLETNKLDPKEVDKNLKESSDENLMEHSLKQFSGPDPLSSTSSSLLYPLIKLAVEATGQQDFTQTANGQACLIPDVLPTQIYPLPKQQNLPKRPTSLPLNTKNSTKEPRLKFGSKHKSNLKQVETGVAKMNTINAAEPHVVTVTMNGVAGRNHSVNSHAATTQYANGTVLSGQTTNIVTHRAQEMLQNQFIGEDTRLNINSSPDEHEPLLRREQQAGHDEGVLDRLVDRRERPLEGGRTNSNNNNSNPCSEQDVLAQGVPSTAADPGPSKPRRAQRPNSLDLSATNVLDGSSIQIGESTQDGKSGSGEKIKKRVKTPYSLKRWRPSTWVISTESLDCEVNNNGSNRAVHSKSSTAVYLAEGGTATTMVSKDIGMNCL
Description: as §1

[24] = target: ADCK4 (Homo sapiens, UniProt Q96D53); details: 1000 nM, read-out: Percent Control
Description: as §1

[25] = target: NEK2 (Homo sapiens, UniProt P51955); details: compound concentration 100 nM; Entrez NEK2; read-out: Percent Control
Description: as §1

[26] = target: AURKB (Homo sapiens, UniProt Q96GD4); details: read-out: Percent Control
AURKB, sequence (Q96GD4 whole entry): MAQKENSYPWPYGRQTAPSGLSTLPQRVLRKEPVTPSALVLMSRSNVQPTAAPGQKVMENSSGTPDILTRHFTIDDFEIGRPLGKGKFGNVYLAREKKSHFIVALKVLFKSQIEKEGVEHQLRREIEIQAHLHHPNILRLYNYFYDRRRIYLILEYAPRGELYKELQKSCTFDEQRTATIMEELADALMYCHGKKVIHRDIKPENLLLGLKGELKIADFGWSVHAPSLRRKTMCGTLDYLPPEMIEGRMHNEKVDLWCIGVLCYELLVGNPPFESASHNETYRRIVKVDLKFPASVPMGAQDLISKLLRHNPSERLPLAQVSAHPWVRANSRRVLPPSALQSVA
Description: as §1

[27] = target: FLT3 (Homo sapiens, UniProt P36888); details: read-out: Percent Control
FLT3, sequence (P36888 27-993): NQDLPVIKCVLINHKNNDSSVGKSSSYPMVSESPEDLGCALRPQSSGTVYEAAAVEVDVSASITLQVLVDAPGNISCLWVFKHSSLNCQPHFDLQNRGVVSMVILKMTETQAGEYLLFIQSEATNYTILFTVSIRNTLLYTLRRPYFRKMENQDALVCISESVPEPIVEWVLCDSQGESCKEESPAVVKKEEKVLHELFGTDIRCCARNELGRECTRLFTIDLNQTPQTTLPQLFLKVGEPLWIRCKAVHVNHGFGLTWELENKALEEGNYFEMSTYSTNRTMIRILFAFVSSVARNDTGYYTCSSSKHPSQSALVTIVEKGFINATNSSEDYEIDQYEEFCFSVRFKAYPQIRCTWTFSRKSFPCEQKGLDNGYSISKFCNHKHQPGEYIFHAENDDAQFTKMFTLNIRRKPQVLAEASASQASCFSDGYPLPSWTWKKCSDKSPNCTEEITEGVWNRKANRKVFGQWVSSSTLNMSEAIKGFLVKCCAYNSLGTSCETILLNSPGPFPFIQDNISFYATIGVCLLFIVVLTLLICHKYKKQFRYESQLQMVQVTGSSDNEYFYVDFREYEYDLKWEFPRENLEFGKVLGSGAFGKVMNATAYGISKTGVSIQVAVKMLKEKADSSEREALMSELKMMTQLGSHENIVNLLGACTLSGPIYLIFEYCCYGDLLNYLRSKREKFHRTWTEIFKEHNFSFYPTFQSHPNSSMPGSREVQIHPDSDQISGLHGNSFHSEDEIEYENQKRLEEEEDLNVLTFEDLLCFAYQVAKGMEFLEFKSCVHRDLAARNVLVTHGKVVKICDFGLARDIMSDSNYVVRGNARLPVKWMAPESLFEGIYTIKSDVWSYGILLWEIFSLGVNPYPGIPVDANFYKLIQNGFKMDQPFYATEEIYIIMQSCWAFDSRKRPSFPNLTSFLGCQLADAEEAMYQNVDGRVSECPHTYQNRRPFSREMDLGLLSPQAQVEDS
Description: as §1

[28] = target: PIP5K1C (Homo sapiens, UniProt O60331); details: compound concentration 100 nM; Entrez PIP5K1C; read-out: Percent Control
Description: as §1

[29] = target: SRPK2 (Homo sapiens, UniProt P78362); details: compound concentration 100 nM; Entrez SRPK2; read-out: Percent Control
Description: as §1

[30] = target: JAK1(JH2domain-pseudokinase) (Homo sapiens, UniProt P23458); details: 1000 nM, read-out: Percent Control
Description: as §1

[31] = target: PIM3 (Homo sapiens, UniProt Q86V86); details: 1000 nM, read-out: Percent Control
Description: as §1

[32] = target: SLK (Homo sapiens, UniProt Q9H2G2); details: 1000 nM, read-out: Percent Control
Description: as §1

[33] = target: RET (Homo sapiens, UniProt P07949); details: compound concentration 100 nM; Entrez RET; read-out: Percent Control
Description: as §1

[34] = target: YSK1 (Homo sapiens, UniProt O00506); details: compound concentration 100 nM; Entrez STK25; read-out: Percent Control
Description: as §1

[35] = target: DCAMKL1 (Homo sapiens, UniProt O15075); details: read-out: Percent Control
DCAMKL1, sequence (O15075 whole entry): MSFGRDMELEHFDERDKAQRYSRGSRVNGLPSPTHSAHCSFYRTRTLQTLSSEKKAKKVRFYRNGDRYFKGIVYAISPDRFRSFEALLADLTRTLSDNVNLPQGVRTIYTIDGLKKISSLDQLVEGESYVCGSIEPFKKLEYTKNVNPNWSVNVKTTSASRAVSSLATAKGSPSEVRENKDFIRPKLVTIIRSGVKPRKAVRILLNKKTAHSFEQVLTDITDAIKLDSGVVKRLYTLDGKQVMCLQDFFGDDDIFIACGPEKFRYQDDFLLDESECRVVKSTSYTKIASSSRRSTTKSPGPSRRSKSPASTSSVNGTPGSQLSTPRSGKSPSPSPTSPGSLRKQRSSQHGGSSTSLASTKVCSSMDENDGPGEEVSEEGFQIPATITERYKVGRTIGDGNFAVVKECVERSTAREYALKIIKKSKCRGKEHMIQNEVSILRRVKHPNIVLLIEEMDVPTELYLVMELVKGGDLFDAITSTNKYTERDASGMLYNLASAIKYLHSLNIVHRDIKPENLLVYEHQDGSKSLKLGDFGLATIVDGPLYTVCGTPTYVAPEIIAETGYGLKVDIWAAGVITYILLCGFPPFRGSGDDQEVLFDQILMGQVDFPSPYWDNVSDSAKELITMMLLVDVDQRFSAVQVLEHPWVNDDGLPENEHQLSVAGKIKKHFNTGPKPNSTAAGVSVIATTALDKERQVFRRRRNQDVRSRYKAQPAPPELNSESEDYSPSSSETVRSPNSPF
Description: as §1

What does the source list for CN1C(=O)[C@@H](N2CCc3c(nn(Cc4ccccc4)c3C(N)=O)C2=O)COc2cc(Cl)ccc21 [Compound 10, (S)-2-benzyl-6-(8-chloro-5-methyl-4-oxo-2,3,4,5-tetrahydrobenzo[b][1,4]oxazepin-3-yl)-7-oxo-4,5,6,7-tetrahydro-2H-pyrazolo[3,4-c]pyridine-3-carboxamide]?
remaining binding at 1 µM [1]: 79%; remaining binding at 1 µM [2]: 73%; remaining binding at 1 µM [3]: 86%; remaining binding at 1 µM [4]: 86%; remaining binding at 0.1 µM [5]: 92%; remaining binding at 1 µM [6]: 96%; remaining binding at 1 µM [7]: 91%; remaining binding at 1 µM [8]: 97%; remaining binding at 1 µM [9]: 74%; remaining binding at 1 µM ([10]; 1000 nM): 100%; remaining binding at 0.1 µM ([10]; compound concentration 100 nM, Entrez MAPK6): 87%; remaining binding at 0.1 µM [11]: 97%; remaining binding at 0.1 µM [12]: 100%; remaining binding at 1 µM [13]: 91%; remaining binding at 1 µM [14]: 92%; remaining binding at 1 µM [15]: 93%; remaining binding at 1 µM ([16]; 1000 nM): 99%; remaining binding at 0.1 µM ([16]; compound concentration 100 nM, Entrez NUAK1): 86%; remaining binding at 1 µM ([17]; 1000 nM): 100%; remaining binding at 0.1 µM ([17]; compound concentration 100 nM, Entrez MAPK15): 82%; remaining binding at 1 µM [18]: 84%; remaining binding at 0.1 µM [19]: 76%; remaining binding at 1 µM [20]: 93%; remaining binding at 1 µM [21]: 90%; remaining binding at 1 µM [22]: 86%; remaining binding at 1 µM ([23]; 1000 nM): 100%; remaining binding at 0.1 µM ([23]; compound concentration 100 nM, Entrez BMPR2): 90%; remaining binding at 1 µM [24]: 80%; remaining binding at 0.1 µM [25]: 82%; remaining binding at 1 µM ([26]; 1000 nM): 100%; remaining binding at 0.1 µM ([26]; compound concentration 100 nM, Entrez AURKB): 100%; remaining binding at 1 µM ([27]; 1000 nM): 100%; remaining binding at 0.1 µM ([27]; compound concentration 100 nM, Entrez FLT3): 96%; remaining binding at 0.1 µM [28]: 100%; remaining binding at 0.1 µM [29]: 100%; remaining binding at 1 µM [30]: 94%; remaining binding at 1 µM [31]: 65%; remaining binding at 1 µM [32]: 78%; remaining binding at 0.1 µM [33]: 100%; remaining binding at 0.1 µM [34]: 97%; remaining binding at 1 µM ([35]; 1000 nM): 100%; remaining binding at 0.1 µM ([35]; compound concentration 100 nM, Entrez DCLK1): 92%
